# Assay results published in ChEMBL document CHEMBL2203118, “Ethyl 2,4,6-trihydroxybenzoate is an agonistic ligand for liver X receptor that induces cholesterol efflux from macrophages without affecting lipid accumulation in HepG2 cells” (Bioorg Med Chem Lett, 2012).
# Activity calls are given as the source filed them. The calls are words filed in the database; no cut-off is given here.
# Experiments:
# [1] = test system: HepG2; experiment: Induction of lipid accumulation in human HepG2 cells assessed as increase in cellular triglyceride level at 50 to 100 uM by Oil Red O staining relative to control; assay type: cell-based; details: hepg2, 100 µM
# [2] = test system: HepG2; experiment: Upregulation of SREBP-1 gene expression in human HepG2 cells at 50 to 100 uM by qPCR analysis relative to control relative to control; assay type: ADME, cell-based; details: hepg2, 100 µM
# [3] = target: T1, Peroxisome proliferator-activated receptor gamma (Homo sapiens) (UniProt P37231); experiment: Transactivation of PPAR-gamma transfected in HEK293 cells at 50 to 100 uM after 24 hrs by luciferase reporter gene assay; assay type: cell-based
# T1 sequence (whole entry): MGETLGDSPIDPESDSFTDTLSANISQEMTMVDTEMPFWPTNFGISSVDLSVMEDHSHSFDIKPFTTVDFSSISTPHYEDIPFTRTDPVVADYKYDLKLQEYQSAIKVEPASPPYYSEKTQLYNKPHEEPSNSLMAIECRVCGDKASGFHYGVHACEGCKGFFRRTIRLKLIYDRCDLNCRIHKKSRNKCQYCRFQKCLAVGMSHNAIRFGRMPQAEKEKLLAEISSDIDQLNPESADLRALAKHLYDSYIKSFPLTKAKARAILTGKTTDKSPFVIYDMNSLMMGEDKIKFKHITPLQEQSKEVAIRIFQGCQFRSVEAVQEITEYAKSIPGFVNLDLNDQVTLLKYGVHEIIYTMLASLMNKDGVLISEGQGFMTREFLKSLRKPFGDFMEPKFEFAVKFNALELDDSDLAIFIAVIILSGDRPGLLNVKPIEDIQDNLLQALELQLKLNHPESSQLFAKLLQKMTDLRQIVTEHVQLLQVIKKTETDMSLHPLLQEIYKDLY
# [4] = target: T2, Liver X receptor (Homo sapiens) (UniProt Q13133+P55055); experiment: Agonist activity at LXR in human THP1 cells assessed as induction of ABCG1 gene expression after 48 hrs by qPCR analysis; assay type: functional, cell-based; details: THP-1
# [5] = target: T3, Oxysterols receptor LXR-beta (Homo sapiens) (UniProt P55055); experiment: (§1) Agonist activity at human LXR-beta assessed as increase in recruitment of Trap 220/D22 coactivator peptide by TR-FRET assay; assay type: functional
# T3 sequence (whole entry): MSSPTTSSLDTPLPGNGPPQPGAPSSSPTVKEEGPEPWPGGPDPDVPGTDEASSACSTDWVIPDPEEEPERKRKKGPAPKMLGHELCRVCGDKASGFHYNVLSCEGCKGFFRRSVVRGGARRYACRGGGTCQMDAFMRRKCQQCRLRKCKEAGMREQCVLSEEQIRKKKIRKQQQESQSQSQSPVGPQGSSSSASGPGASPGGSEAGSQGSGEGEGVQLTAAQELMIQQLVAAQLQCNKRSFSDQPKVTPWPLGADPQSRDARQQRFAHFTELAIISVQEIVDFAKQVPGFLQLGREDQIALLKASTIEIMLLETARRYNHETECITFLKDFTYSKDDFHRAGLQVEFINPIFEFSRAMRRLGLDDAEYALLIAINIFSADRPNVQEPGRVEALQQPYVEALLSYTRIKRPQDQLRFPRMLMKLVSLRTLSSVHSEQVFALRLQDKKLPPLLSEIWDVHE
# [6] = target: T4, Oxysterols receptor LXR-beta (Homo sapiens, UniProt P55055); experiment: as §1; assay type: functional
# T4 sequence (P55055 whole entry): T3 sequence (whole entry)
# [7] = target: T2, Liver X receptor (Homo sapiens); experiment: Agonist activity at LXR in human THP1 cells assessed as induction of ABCA1 mRNA expression at 100 uM after 48 hrs by qPCR analysis relative to control; assay type: functional, cell-based; details: THP-1
# [8] = test system: HepG2; experiment: Reduction in SCD-1 gene expression in human HepG2 cells at 100 uM by qPCR analysis relative to control; assay type: functional; design: scale not given: the % may be the effect or the level left
# [9] = test system: HepG2; experiment: Upregulation of FAS gene expression in human HepG2 cells at 50 to 100 uM by qPCR analysis; assay type: ADME, cell-based; details: hepg2, 100 µM
# [10] = test system: HepG2; experiment: Induction of lipid accumulation in human HepG2 cells assessed as cellular triglyceride concentration at 50 to 100 uM; assay type: cell-based; details: hepg2, 100 µM
# [11] = target: T5, Oxysterols receptor LXR-alpha (Homo sapiens) (UniProt Q13133); experiment: Transactivation of human LXR-alpha transfected in HEK293 cells at 100 uM after 24 hrs by luciferase reporter gene assay; assay type: cell-based
# T5 sequence (whole entry): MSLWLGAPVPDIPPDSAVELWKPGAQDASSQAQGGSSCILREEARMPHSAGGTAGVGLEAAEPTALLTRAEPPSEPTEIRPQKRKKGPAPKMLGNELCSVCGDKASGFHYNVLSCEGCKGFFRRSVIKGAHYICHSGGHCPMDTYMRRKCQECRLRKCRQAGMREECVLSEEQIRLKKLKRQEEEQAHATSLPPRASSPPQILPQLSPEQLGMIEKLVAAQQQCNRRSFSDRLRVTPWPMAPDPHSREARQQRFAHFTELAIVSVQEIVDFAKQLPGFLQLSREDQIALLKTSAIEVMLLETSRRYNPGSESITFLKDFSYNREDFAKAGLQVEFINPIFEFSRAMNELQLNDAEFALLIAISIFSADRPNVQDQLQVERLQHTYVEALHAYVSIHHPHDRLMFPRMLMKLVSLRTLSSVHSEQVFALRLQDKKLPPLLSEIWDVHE
# [12] = target: T3, Oxysterols receptor LXR-beta (Homo sapiens); experiment: Transactivation of human LXR-beta transfected in HEK293 cells at 100 uM after 24 hrs by luciferase reporter gene assay; assay type: cell-based
# [13] = target: T2, Liver X receptor (Homo sapiens); experiment: Agonist activity at LXR in human THP1 cells assessed as induction of ABCA1 gene expression after 48 hrs by qPCR analysis; assay type: functional, cell-based; details: THP-1
# [14] = target: T6, Oxysterols receptor LXR-alpha (Mus musculus) (UniProt Q9Z0Y9); experiment: Agonist activity at LXR-alpha in mouse RAW264.7 cells assessed as reduction in cellular cholesterol level; assay type: functional, cell-based
# T6 sequence (whole entry): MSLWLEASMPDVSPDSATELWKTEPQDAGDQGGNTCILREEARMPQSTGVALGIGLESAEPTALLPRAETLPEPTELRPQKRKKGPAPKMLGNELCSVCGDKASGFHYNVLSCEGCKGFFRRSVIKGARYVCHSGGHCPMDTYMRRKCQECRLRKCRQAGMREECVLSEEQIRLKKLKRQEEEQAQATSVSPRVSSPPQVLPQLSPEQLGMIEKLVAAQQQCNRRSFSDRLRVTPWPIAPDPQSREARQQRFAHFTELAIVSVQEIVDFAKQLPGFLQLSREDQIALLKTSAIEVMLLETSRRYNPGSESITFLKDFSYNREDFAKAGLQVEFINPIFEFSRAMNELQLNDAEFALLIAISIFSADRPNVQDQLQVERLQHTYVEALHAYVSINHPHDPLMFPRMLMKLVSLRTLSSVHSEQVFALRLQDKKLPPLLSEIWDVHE
# [15] = target: T2, Liver X receptor (Homo sapiens); experiment: Agonist activity at LXR in human THP1 cells assessed as induction of ABCA1 gene expression at 100 uM after 48 hrs by immunoblot analysis relative to control; assay type: functional, cell-based; details: THP-1
# [16] = target: T5, Oxysterols receptor LXR-alpha (Homo sapiens); experiment: Binding affinity to human LXR-alpha LBD by SPR-Biacore assay
# [17] = test system: HepG2; experiment: Upregulation of CPT-1 gene expression in human HepG2 at 100 uM by qPCR analysis relative to control; assay type: functional, cell-based
# [18] = target: T5, Oxysterols receptor LXR-alpha (Homo sapiens); experiment: Agonist activity at LXR-alpha in human THP1 cells assessed as increase cholesterol efflux to HDL by FACs analysis; assay type: functional, cell-based; details: THP-1
# [19] = target: T2, Liver X receptor (Homo sapiens); experiment: Agonist activity at LXR in human Caco2 cells assessed as increase in ABCG8 mRNA level at 100 uM after 48 hrs by qPCR analysis relative to control; assay type: functional, cell-based; details: Caco-2
# [20] = Agonist activity at LXR in mouse RAW 264.7 assessed as increase in ABCG1mRNA level at 100 uM after 48 hrs by qPCR analysis relative to control; assay type: functional
# [21] = test system: HepG2; experiment: Induction of lipid accumulation in human HepG2 cells assessed as increase in cellular triglyceride level by Dil staining relative to control; assay type: cell-based
# [22] = test system: THP-1; experiment: Cytotoxicity against human THP1 cells after 48 hrs by MTT assay; assay type: cell-based; details: thp-1, 48 h
compound,measurement,setting,value
CCOC(=O)c1c(O)cc(O)cc1O,Activity,[1],Non-toxic
same,Activity,[2],Non-toxic
same,Activity,[3],inactive
same,Activity,[4],Dose-dependent effect
same,Activity,[5],Dose-dependent effect
same,EC50,[6],3.04 µM
same,fold change (FC),[7],7.4
same,Activity,[8],54.09%
same,Activity,[9],Non-toxic
same,Activity,[10],Non-toxic
same,Activity,[11],64%
same,Activity,[12],55%
same,Activity,[13],Dose-dependent effect
same,Activity,[14],Dose-dependent effect
same,Activity,[15],Active
same,Activity,[16],Active
same,Activity,[17],Active
same,Activity,[18],Dose-dependent effect
same,fold change (FC),[19],1.5
same,fold change (FC),[20],2.9
same,Activity,[21],Non-toxic
same,Activity,[22],Non-toxic
